What all share (format): cell-based
Assay [1] relates to MDA-MB-231 (breast). The experiment in a line: SRB colorimetric cell growth and viability assay, MDA-MB-231. Particulars: 48 hours of exposure, read-out: GI50, concentration at which the compound assayed inhibits 50% of the cell growth compared to non-treated cells.
The subject of assay [2] is A549 (lung). As to the kind of experiment: SRB colorimetric cell growth and viability assay, A549. Conditions: 48 hours of exposure, read-out: GI50, concentration at which the compound assayed inhibits 50% of the cell growth compared to non-treated cells.
The subject of assay [3] is HT29 (colon). The experiment in a line: SRB colorimetric cell growth and viability assay, HT29. Conditions: read-out: GI50, concentration at which the compound assayed inhibits 50% of the cell growth compared to non-treated cells.
[4] abbreviates: Homo sapiens, HT-29, 48 hours of exposure.

Like-named read-outs stand apart in the source and are kept apart here.

For “6-dediolivosyl-6-β-D-amicetosyl-deoliosyl-3C-β-D-olivosyl-MTM [formula XXI]”, the GI50 in assay [1] was 470 nM; in assay [2], 440 nM; in assay [3] (48 hours of exposure), 940 nM.
For “6-dediolivosyl-6-β-D-amicetosyl-deoliosyl-demycarosyl-3C-β-D-boivinosyl-MTM [formula XVIII]”, the values for the GI50 in assay [1], in assay [2] and in assay [3] (48 hours of exposure) were 400 nM, 750 nM and 2010 nM, respectively.
In the same order, the values of “6-dediolivosyl-6-β-D-amicetosyl-deoliosyl-demycarosyl-3C-β-D-olivosyl-3D-β-D-digitoxosyl-MTM [formula XX]” are more than 10000 nM, more than 10000 nM and more than 10000 nM.
Regarding `CO[C@H](C(=O)[C@@H](O)[C@@H](C)O)[C@@H]1Cc2cc3cc(O[C@H]4C[C@@H](O[C@H]5C[C@@H](O)[C@H](O)C(C)O5)[C@H](O)C(C)O4)c(C)c(O)c3c(O)c2C(=O)[C@H]1O[C@H]1C[C@@H](O[C@H]2C[C@H](O[C@H]3C[C@](C)(O)[C@H](O)C(C)O3)[C@@H](O)C(C)O2)[C@H](O)C(C)O1` (stereo partly drawn) [formula IX, deoliosyl-3C-α-L-digitoxosyl-MTM], the GI50 is 1940 nM in assay [1] (Homo sapiens), 2670 nM in assay [2] (Homo sapiens) and 3870 nM in assay [3] (setting [4]).
`CO[C@H](C(=O)[C@@H](O)[C@@H](C)O)[C@@H]1Cc2cc3cc(O[C@H]4C[C@@H](O[C@H]5C[C@@H](O)[C@H](O)C(C)O5)[C@H](O)C(C)O4)c(C)c(O)c3c(O)c2C(=O)[C@H]1O[C@H]1C[C@@H](O[C@H]2C[C@@H](O[C@H]3C[C@@H](O)[C@H](O)C(C)O3)[C@@H](O)C(C)O2)[C@H](O)C(C)O1` (stereo partly drawn) [formula VIII]: the GI50 is 230 nM in assay [1] (Homo sapiens), 190 nM in assay [2] (Homo sapiens) and 270 nM in assay [3] (setting [4]).
With `CO[C@H](C(=O)[C@@H](O)[C@@H](C)O)[C@@H]1Cc2cc3cc(O[C@H]4C[C@@H](O[C@H]5C[C@@H](O)[C@H](O)C(C)O5)[C@H](O)C(C)O4)c(C)c(O)c3c(O)c2C(=O)[C@H]1O[C@H]1C[C@@H](O[C@H]2C[C@](C)(O)[C@H](O)C(C)O2)[C@H](O)C(C)O1` (stereo partly drawn) [formula X, deoliosyl-3C-β-D-mycarosyl-MTM], the GI50 in assay [1] (Homo sapiens) is 370 nM; in assay [2] (Homo sapiens), 480 nM; in assay [3] (setting [4]), 930 nM.
In the same order, the values of `CO[C@H](C(=O)[C@@H](O)[C@@H](C)O)[C@@H]1Cc2cc3cc(O[C@H]4C[C@@H](O)[C@H](O)C(C)O4)c(C)c(O)c3c(O)c2C(=O)[C@H]1O[C@H]1C[C@@H](O[C@H]2C[C@@H](O[C@H]3C[C@](C)(O)[C@H](O)C(C)O3)[C@@H](O)C(C)O2)[C@H](O)C(C)O1` (stereo partly drawn) [formula XI, 3A-deolivosyl-MTM] are 450 nM, 750 nM and 710 nM.
On the same counts, the results for `CO[C@H](C(=O)[C@@H](O)[C@@H](C)O)[C@@H]1Cc2cc3cc(O[C@H]4C[C@@H](O[C@H]5C[C@@H](O)[C@H](O)C(C)O5)[C@H](O)C(C)O4)c(C)c(O)c3c(O)c2C(=O)[C@H]1O[C@H]1C[C@@H](O[C@H]2C[C@@H](O)[C@@H](O)C(C)O2)[C@H](O)C(C)O1` (stereo partly drawn) [formula XII, demycarosyl-MTM] are 1280 nM, 1810 nM and more than 10000 nM.
On the same counts, the results for `CO[C@H](C(=O)[C@@H](O)[C@@H](C)O)[C@@H]1Cc2cc3cc(O[C@H]4CC[C@H](O)C(C)O4)c(C)c(O)c3c(O)c2C(=O)[C@H]1O[C@H]1C[C@@H](O[C@H]2C[C@@H](O[C@H]3C[C@](C)(O)[C@H](O)C(C)O3)[C@@H](O)C(C)O2)[C@H](O)C(C)O1` (stereo partly drawn) [formula XIII] are 1380 nM, 1490 nM and 3190 nM.
For “deoliosyl-demycarosyl-3C-β-D-boivinosyl-MTM [formula XVII]”, the GI50 in assay [1] was 3720 nM; in assay [2] it was more than 10000 nM; in assay [3] (48 hours of exposure) it was more than 10000 nM.
Take “deoliosyl-demycarosyl-3C-β-D-olivosyl-3D-β-D-digitoxosyl-MTM [formula XIX]”: the GI50 in assay [1] was 690 nM; in assay [2] it was 910 nM; in assay [3] (48 hours of exposure) it was 5980 nM.

The record behind these values is US8426169B2, “Glycosylate derivatives of mithramycin, method of preparation and uses thereof” (University of Kentucky Research Foundation, priority 2007, dated 2013).
